Laboratory results as given in ChEMBL document CHEMBL2176941, “Kinetic profile of amyloid formation in the presence of an aromatic inhibitor by nuclear magnetic resonance” (ACS Med Chem Lett, 2012).
Active and inactive are the calls of the source. The rule behind the calls is not given here.

How the values were obtained:
[1] = biological target: T1, Islet amyloid polypeptide (Homo sapiens) (UniProt P10997); assay: Inhibition of IAPP fibrillation at 1:1 protein to compound ratio after 44 days by transmission electron microscopy
T1 sequence (whole entry): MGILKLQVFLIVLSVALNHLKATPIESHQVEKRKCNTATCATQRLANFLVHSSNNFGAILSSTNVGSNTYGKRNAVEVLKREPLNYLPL

[2] = biological target: T1, Islet amyloid polypeptide (Homo sapiens); assay: Inhibition of IAPP assembly at 1:1 protein to compound ratio after 29 days by NMR analysis
[3] = biological target: T1, Islet amyloid polypeptide (Homo sapiens); assay: Inhibition of IAPP assembly assessed as prenucleation period at 1:1 protein to compound ratio by NMR analysis
[4] = biological target: T1, Islet amyloid polypeptide (Homo sapiens); assay: Activity of IAPP assessed as maximal rate of self-assembly at 1:1 protein to compound ratio by NMR analysis (reference value: 12.2/day)
[5] = biological target: T1, Islet amyloid polypeptide (Homo sapiens); assay: Inhibition of IAPP assembly at 1:1 protein to compound ratio after 1 to 5 days by circular dichroism spectra analysis
[6] = biological target: T1, Islet amyloid polypeptide (Homo sapiens); assay: Inhibition of IAPP assembly assessed as nucleation period at 1:1 protein to compound ratio (reference value: 15.3 days)
[7] = Inhibition of IAPP (11 to 25) S20G mutant assembly at 1:1 protein to compound ratio after 1 to 8 days by TOCSY spectra analysis
[8] = biological target: T1, Islet amyloid polypeptide (Homo sapiens); assay: Inhibition of IAPP assembly at 1:1 protein to compound ratio after 18 to 31 days by NMR analysis

inhibition [1]: inactive | inhibition [2]: inactive | TIME [3]: 408 h | Activity [4]: 15.1 day⁻¹ | inhibition [5]: Active | TIME [6]: 290 h | inhibition [7]: Active | inhibition [8]: Active
SMILES: COc1cc(/C=C/C(=O)CC(=O)/C=C/c2ccc(O)c(OC)c2)ccc1O
